Results as given in US20260285850A1, “SUBSTITUTED OXAZOLIDINONES AND IMIDAZOLINONES AS HERBICIDES” (FMC CORPORATION, priority 2023, published 2026).

Assays:
Assay type in all cases: in vivo
kochia (Bassia scoparia) [1] = assay: Test A postemergence application, visual injury rating 0-100; details: 10 days
How it was run: (§1)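 Compound in a non-phytotoxic, surfactant-containing solvent is applied either as a directed soil spray before seedlings emerge or onto emerged plants 2-10 cm tall; pots hold a loam-sand blend. Plants grow 10 days under greenhouse conditions and are rated by eye against untreated controls (0 no effect, 100 complete control).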

[2] = tested on: ragweed (common ragweed, Ambrosia artemisiifolia); assay: as above; details: 10 days
How it was run: as §1

[3] = tested on: ryegrass, Italian (italian ryegrass, Lolium multiflorum); assay: as above; details: 10 days
How it was run: as §1

[4] = tested on: horseweed (Erigeron canadensis); assay: as above; details: 10 days
How it was run: as §1

[5] = tested on: wheat (Triticum aestivum); assay: as above; details: 10 days
How it was run: as §1

[6] = tested on: oat, wild (wild oat, Avena fatua); assay: as above; details: 10 days
How it was run: as §1

soybean (Glycine max) [7] = assay: as above; details: 10 days
How it was run: as §1

[8] = tested on: blackgrass (Alopecurus myosuroides); assay: as above; details: 10 days
How it was run: as §1

corn (Zea mays) [9] = assay: as above; details: 10 days
How it was run: as §1

[10] = tested on: galium (catchweed bedstraw, Galium aparine); assay: as above; details: 10 days
How it was run: as §1

[11] = tested on: barnyardgrass (Echinochloa crus-galli); assay: as above; details: 10 days
How it was run: as §1

[12] = tested on: green foxtail (Setaria viridis); assay: as above; details: 10 days
How it was run: as §1

[13] = tested on: palmer (palmer amaranth, palmer pigweed, Amaranthus palmeri); assay: as above; details: 10 days
How it was run: as §1

[14] = tested on: barnyardgrass (Echinochloa crusgalli); assay: Test B flooded paddy test, visual plant response rating 0-100; details: 250 g ai/ha, Flood, applied to paddy water, evaluated after 13 days
How it was run: (§2)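 Treatment occurs at the 2-leaf stage by adding compound to floodwater standing 3 cm above the soil, a level kept for the whole test. Plants stay in the greenhouse 13 days before visual comparison with controls.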

[15] = tested on: ducksalad (Heteranthera limosa); assay: as above; details: 250 g ai/ha, Flood, applied to paddy water, evaluated after 13 days
How it was run: as §2

rice (Oryza sativa) = assay: as above; details: 250 g ai/ha, Flood, applied to paddy water, evaluated after 13 days
How it was run: as §2

[16] = tested on: sedge, umbrella (small-flower umbrella sedge, Cyperus difformis); assay: as above; details: 250 g ai/ha, Flood, applied to paddy water, evaluated after 13 days
How it was run: as §2

kochia (Bassia scoparia) [17] = assay: Test A preemergence soil spray, visual injury rating 0-100; details: 10 days, 0 = no effect, 100 = complete control
How it was run: as §1

[18] = tested on: ragweed (common ragweed, Ambrosia artemisiifolia); assay: as above; details: 10 days, 0 = no effect, 100 = complete control
How it was run: as §1

[19] = tested on: ryegrass, Italian (italian ryegrass, Lolium multiflorum); assay: as above; details: 10 days, 0 = no effect, 100 = complete control
How it was run: as §1

[20] = tested on: wheat (Triticum aestivum); assay: as above; details: 10 days, 0 = no effect, 100 = complete control
How it was run: as §1

[21] = tested on: oat, wild (wild oat, Avena fatua); assay: as above; details: 10 days, 0 = no effect, 100 = complete control
How it was run: as §1

soybean (Glycine max) [22] = assay: as above; details: 10 days, 0 = no effect, 100 = complete control
How it was run: as §1

[23] = tested on: blackgrass (Alopecurus myosuroides); assay: as above; details: 10 days, 0 = no effect, 100 = complete control
How it was run: as §1

corn (Zea mays) [24] = assay: as above; details: 10 days, 0 = no effect, 100 = complete control
How it was run: as §1

[25] = tested on: barnyardgrass (Echinochloa crus-galli); assay: as above; details: 10 days, 0 = no effect, 100 = complete control
How it was run: as §1

[26] = tested on: green foxtail (Setaria viridis); assay: as above; details: 10 days, 0 = no effect, 100 = complete control
How it was run: as §1

[27] = tested on: palmer (palmer amaranth, palmer pigweed, Amaranthus palmeri); assay: as above; details: 10 days, 0 = no effect, 100 = complete control
How it was run: as §1

[28] = 31 g ai/ha, postemergence, 0 = no effect, 100 = complete control
[29] = Postemergence, 125 g ai/ha, 0 is no effect, 100 is complete control

In the case of `CC1(C(=O)NC2C=CC(C(=O)OC3CCCC3)C2)CN(c2cc(F)cc(F)c2)C(=O)O1` (stereo not shown) [Compound 57], the “Kochia plant response rating (0-100)” value (kochia (Bassia scoparia) [1]; [28]) was 80, the “Kochia plant response rating (0 to 100 scale)” value (kochia (Bassia scoparia) [1]; [29]) was 80 and the “Ragweed plant response rating (0-100)” value [2, 28] was 40. For the same compound, the “Ragweed plant response rating (0 to 100 scale)” value [2, 29] was 60, the “Ryegrass, Italian plant response rating (0-100)” value [3, 28] was 90 and the “Ryegrass, Italian plant response rating (0 to 100 scale)” value [3, 29] was 90. For the same compound, the “Horseweed plant response rating (0-100)” value [4, 28] was 0, the “Horseweed plant response rating (0 to 100 scale)” value [4, 29] was 60 and the “Wheat plant response rating (0-100)” value [5, 28] was 90. For the same compound, the “Wheat plant response rating (0 to 100 scale)” value [5, 29] was 90, the “Oat, Wild plant response rating (0-100)” value [6, 28] was 90 and the “Oat, Wild plant response rating (0 to 100 scale)” value [6, 29] was 90. The “Soybean plant response rating (0-100)” value (soybean (Glycine max) [7]; [28]) was 60, the “Soybean plant response rating (0 to 100 scale)” value (soybean (Glycine max) [7]; [29]) was 70 and the “Blackgrass plant response rating (0-100)” value [8, 28] was 90. The “Blackgrass plant response rating (0 to 100 scale)” value [8, 29] was 90, the “Corn plant response rating (0-100)” value (corn (Zea mays) [9]; [28]) was 90 and the “Corn plant response rating (0 to 100 scale)” value (corn (Zea mays) [9]; [29]) was 100. For the same compound, the “Galium plant response rating (0-100)” value [10, 28] was 80, the “Galium plant response rating (0 to 100 scale)” value [10, 29] was 80 and the “Barnyardgrass plant response rating (0-100)” value [11, 28] was 100. For the same compound, the “Barnyardgrass plant response rating (0 to 100 scale)” value [11, 29] was 100, the “Foxtail, Green plant response rating (0-100)” value [12, 28] was 30 and the “Foxtail, Green plant response rating (0 to 100 scale)” value [12, 29] was 90. For the same compound, the “Amaranth, Palmer plant response rating (0-100)” value [13, 28] was 20, the “Amaranth, Palmer / Pigweed, Palmer plant response rating (0 to 100 scale)” value [13, 29] was 70 and the “Plant response rating, Barnyardgrass (0 to 100 scale, 0 is no effect and 100 is complete control)” value [14] was 90. For the same compound, the “Plant response rating, Ducksalad (0 to 100 scale, 0 is no effect and 100 is complete control)” value [15] was 100, the “Plant response rating, Rice (0 to 100 scale, 0 is no effect and 100 is complete control)” value (rice (Oryza sativa)) was 20 and the “Plant response rating, Sedge, Umbrella (0 to 100 scale, 0 is no effect and 100 is complete control)” value [16] was 55. The “Kochia plant response rating (0-100)” value (kochia (Bassia scoparia) [17]; 31 g ai/ha) was 0, the “Kochia plant response rating (0 to 100 scale)” value (kochia (Bassia scoparia) [17]; 125 g ai/ha) was 90 and the “Ragweed plant response rating (0-100)” value ([18]; 31 g ai/ha) was 0. The “Ragweed plant response rating (0 to 100 scale)” value ([18]; 125 g ai/ha) was 0, the “Ryegrass, Italian plant response rating (0-100)” value ([19]; 31 g ai/ha) was 50 and the “Ryegrass, Italian plant response rating (0 to 100 scale)” value ([19]; 125 g ai/ha) was 100. For the same compound, the “Wheat plant response rating (0-100)” value ([20]; 31 g ai/ha) was 90, the “Wheat plant response rating (0 to 100 scale)” value ([20]; 125 g ai/ha) was 100 and the “Oat, Wild plant response rating (0-100)” value ([21]; 31 g ai/ha) was 90. For the same compound, the “Oat, Wild plant response rating (0 to 100 scale)” value ([21]; 125 g ai/ha) was 90, the “Soybean plant response rating (0-100)” value (soybean (Glycine max) [22]; 31 g ai/ha) was 50 and the “Soybean plant response rating (0 to 100 scale)” value (soybean (Glycine max) [22]; 125 g ai/ha) was 80. For the same compound, the “Blackgrass plant response rating (0-100)” value ([23]; 31 g ai/ha) was 70, the “Blackgrass plant response rating (0 to 100 scale)” value ([23]; 125 g ai/ha) was 90 and the “Corn plant response rating (0-100)” value (corn (Zea mays) [24]; 31 g ai/ha) was 10. The “Corn plant response rating (0 to 100 scale)” value (corn (Zea mays) [24]; 125 g ai/ha) was 90, the “Barnyardgrass plant response rating (0-100)” value ([25]; 31 g ai/ha) was 50 and the “Barnyardgrass plant response rating (0 to 100 scale)” value ([25]; 125 g ai/ha) was 100. For the same compound, the “Foxtail, Green plant response rating (0-100)” value ([26]; 31 g ai/ha) was 0, the “Foxtail, Green plant response rating (0 to 100 scale)” value ([26]; 125 g ai/ha) was 50 and the “Amaranth, Palmer plant response rating (0-100)” value ([27]; 31 g ai/ha) was 10. For the same compound, the “Amaranth, Palmer plant response rating (0 to 100 scale)” value ([27]; 125 g ai/ha) was 70.
